Data: patent publication US5317018A, “Benzodiazepines and compositions for treating anxiety and panic disorders, and idiopathic and psychomotor epilepsy” (priority 1992, dated 1994)
“Also recorded” adds a separate entry of the source. Read-outs that look alike come from different tables or passages of the source.

Columns and labels:
[1] = tested on: rats; test: Vogel punished drinking test with PTZ, proconflict paradigm (anti-proconflict effect, anti-proconflict index); assay type: in vivo, rat; conditions: for ED50: Rattus norvegicus, iv, 0.25 h, i.v., 15 min before test, PTZ i.p., shock 0.35 mA, fiducial limits on following line; for anti-proconflict index: ratio of ED50 values anticonflict/antiproconflict; for antiproconflict index compared with reference compounds: in words, vs Bretazenil, prior art compound or diazepam
[2] = tested on: rats; test: Vogel punished drinking test, conflict paradigm (anticonflict effect); assay type: in vivo; conditions: Rattus norvegicus, iv, 0.25 h; i.v., 15 min before test, shock 0.8 mA; fiducial limits on following line
[3] = Duration of action at doses equipotent to Bretazenil; assay type: in vivo
[4] = tested on: rats; conditions: background, cited from earlier work; for potency in antagonizing conflict and proconflict responses: in words; for anti-proconflict index: Giusti et al. 1991
[5] = tested on: rats; test: Chemical kindling with pentylenetetrazole (PTZ), kindled seizures; assay type: in vivo, rat; conditions: per os; for ED50 vs kindled seizures: 30 min before PTZ 30 mg/kg i.p., n 25; for potency relative to diazepam in kindling seizure test: PTZ kindling
Experimental: Kindled seizures were induced in rats by i.p. injection of 30 mg/kg of PTZ every 2nd day for 9 weeks.

[6] = background, in words; cited from earlier work
[7] = tested on: rats; conditions: background, in words; cited from earlier work
[8] = tested on: rats; test: Development of tolerance to the anticonvulsant effect against bicuculline seizures; assay type: in vivo, rat; conditions: oral; for development of tolerance to anticonvulsant action: 3 times daily up to 70 days, in words
Experimental: The bicuculline seizure test (see Massotti et al., J. Pharmacol. Exp. Ther. 256: 1154-1156, 1991) consists in infusing a bicuculline solution (0.27 μmol/kg) into the rat tail vein at a constant rate (0.46 ml/min) and records the first sign of myoclonic jerk and the full myoclonic convulsion. The dose of bicuculline required to elicit these responses was taken as an index of the efficacy of diazepam and inventive compounds against seizures induced by a decrease of GABAergic tone (Massotti et al., J. Pharmacol. Exp. Ther. 256: 1154-1160, 1990). […] Possible development of tolerance to the antagonism of bicuculline convulsion was tested on various days after the beginning of the protracted treatment with the inventive compounds.

## NC(=O)c1ncn2c1CN=C(c1ccccc1Cl)c1cc(Cl)ccc1-2 [8-chloro-6-(2-chlorophenyl) -4H-imidazo-[1,5-a][1,4]benzodiazepine-3-carboxamide, reference compound]
[1]
  ED50: 0.45 µmol/kg
  anti-proconflict index: 5.0
[2]
  ED50: 2 µmol/kg

## CC(C)(C)OC(=O)c1ncn2c1[C@@H]1CCCN1C(=O)c1c(Br)cccc1-2 [Bretazenil, reference compound]
[3]; Bretazenil, equipotent dose
  duration of action: 0.25 to 0.75 h
[4]
  potency in antagonizing conflict and proconflict responses: surpassed those of the anxiolytic BZD ligands diazepam, zolpidem, alpidem, and midazolam; also recorded: significantly more potent in antagonizing the proconflict effect
  anti-proconflict index: ~10
[1]
  ED50: 0.2 µmol/kg
  anti-proconflict index: 12
[2]
  ED50: 2.4 µmol/kg

## CN1C(=O)CN=C(c2ccccc2)c2cc(Cl)ccc21 [Diazepam, reference compound]
[5]
  ED50 vs kindled seizures: 5.7 (2.9-11.2)
[4]
  anti-proconflict index: ~1
[1]
  ED50: 1.9 µmol/kg
  anti-proconflict index: 1
[6]
  development of tolerance in chronic maintenance therapy: rapid development of tolerance
[2]
  ED50: 2 µmol/kg
[7]
  prevention of development of kindling seizures: powerful agents to prevent the development of seizures
[8]
  development of tolerance to anticonvulsant action: developed after a few days of treatment

## NC(=O)c1ncn2c1CN=C(c1ccccc1Br)c1cc(F)ccc1-2 [Example 9, 6-(2-Bromophenyl)-8-fluoro-4H-imidazo[1,5-a][1,4]benzodiazepine-3-carboxamide]
[5]
  ED50 vs kindled seizures: 0.25 (.071-0.883)
  potency relative to diazepam in kindling seizure test: approximately 20 fold
[1]
  ED50: 0.061 µmol/kg
  antiproconflict index compared with reference compounds: antiproconflict index larger than that of Bretazenil
  anti-proconflict index: 48
[2]
  ED50: 2.9 µmol/kg
[8]; 3 times daily
  days of treatment without anticonvulsant tolerance: ≥ 70 days
[8]
  development of tolerance to anticonvulsant action: maintained its anticonvulsant effect unabated without tolerance

## CCNC(=O)c1ncn2c1CN=C(c1ccccc1Br)c1cc(F)ccc1-2 [Example 10, 6-(2-Bromophenyl)-N-ethyl-8-fluoro-4H-imidazo[1,5-a][1,4]-benzodiazepine-3-carboxamide]
[5]
  potency relative to diazepam in kindling seizure test: 12 fold
[1]
  ED50: 0.079 µmol/kg
  antiproconflict index compared with reference compounds: antiproconflict index larger than that of Bretazenil
  anti-proconflict index: 35
[2]
  ED50: 2.8 µmol/kg

## CCCNC(=O)c1ncn2c1CN=C(c1ccccc1Br)c1cc(F)ccc1-2 [Example 11(a)]
[5]
  potency relative to diazepam in kindling seizure test: 2.2 fold
[3]; equipotent doses to Bretazenil
  duration of action: 3 to 6 h
[1]
  ED50: 0.44 µmol/kg
  antiproconflict index compared with reference compounds: better than diazepam
[2]
  ED50: 2.74 µmol/kg

## CC(C)NC(=O)c1ncn2c1CN=C(c1ccccc1Br)c1cc(F)ccc1-2 [Example 11(b), 6-(2-Bromophenyl)-8-fluoro-N-(1-methylethyl)-4-H-imidazo[1,5-a][1,4]benzodiazepine-3-carboxamide]
[5]
  potency relative to diazepam in kindling seizure test: 2.5 fold
[3]; equipotent doses to Bretazenil
  duration of action: 3 to 6 h
[1]
  ED50: 0.52 µmol/kg
  antiproconflict index compared with reference compounds: better than diazepam
[2]
  ED50: 1.72 µmol/kg

## C=CCNC(=O)c1ncn2c1CN=C(c1ccccc1Br)c1cc(F)ccc1-2 [Example 11(c), 6-(2-Bromophenyl)-8-fluoro-N-(2-propenyl)-4H-imidazo[1,5-a][1,4]benzodiazepine-3-carboxamide]
[1]
  ED50: 0.18 µmol/kg
  antiproconflict index compared with reference compounds: antiproconflict index larger than that of Bretazenil
  anti-proconflict index: 20
[2]
  ED50: 3.6 µmol/kg

## O=C(NCC1CC1)c1ncn2c1CN=C(c1ccccc1Br)c1cc(F)ccc1-2 [Example 11(d), 6-(2-Bromophenyl)-N-[(cyclopropyl)methyl]-8-fluoro-4H-imidazo[1,5-a][1,4]benzodiazepine-3-carboxamide]
[5]
  potency relative to diazepam in kindling seizure test: 2 fold
[3]; equipotent doses to Bretazenil
  duration of action: 3 to 6 h
[1]
  ED50: 0.43 µmol/kg
  antiproconflict index compared with reference compounds: better than diazepam
[2]
  ED50: 3.3 µmol/kg

## CCCN(CCC)C(=O)Cc1c(-c2ccc(Cl)cc2)nc2ccc(Cl)cn12 [alpidem]
[4]
  anti-proconflict index: ~1

## Cc1nnc2n1-c1ccc(Cl)cc1C(c1ccccc1)=NC2 [alprazolam]
[4]
  potency in antagonizing conflict and proconflict responses: surpassed those of the anxiolytic BZD ligands diazepam, zolpidem, alpidem, and midazolam; also recorded: significantly more potent in antagonizing the proconflict effect
  anti-proconflict index: ~10

## O=C1CN=C(c2ccccc2Cl)c2cc([N+](=O)[O-])ccc2N1 [clonazepam]
[4]
  potency in antagonizing conflict and proconflict responses: surpassed those of the anxiolytic BZD ligands diazepam, zolpidem, alpidem, and midazolam; also recorded: significantly more potent in antagonizing the proconflict effect
  anti-proconflict index: ~10
[6]
  development of tolerance in chronic maintenance therapy: rapid development of tolerance
[7]
  prevention of development of kindling seizures: powerful agents to prevent the development of seizures

## Cc1ncc2n1-c1ccc(Cl)cc1C(c1ccccc1F)=NC2 [midazolam]
[4]
  anti-proconflict index: ~1

## Cc1ccc(-c2nc3ccc(C)cn3c2CC(=O)N(C)C)cc1 [zolpidem]
[4]
  anti-proconflict index: ~1
